Data published in US20200172473A1, “DUAL MODULATORS OF FARNESOID X RECEPTOR AND SOLUBLE EPOXIDE HYDROLASE” (JOHANN WOLFGANG GOETHE-UNIVERSITÄT FRANKFURT AM MAIN, priority 2017, published 2020).
Where two headings read alike, the source gives them in different places.

Experiments:
PPARα = molecular target: T1, PPARα (Homo sapiens, UniProt Q07869); assay: Gal4-hybrid reporter gene assay PPARα in HEK293T cells; assay type: cell-based; conditions: 10 μM
T1 construct: pFA-CMV-hPPARα-LBD; expressed in transfected cells; host or cells: HEK293T
T1 sequence (Q07869 239-466 limits assumed): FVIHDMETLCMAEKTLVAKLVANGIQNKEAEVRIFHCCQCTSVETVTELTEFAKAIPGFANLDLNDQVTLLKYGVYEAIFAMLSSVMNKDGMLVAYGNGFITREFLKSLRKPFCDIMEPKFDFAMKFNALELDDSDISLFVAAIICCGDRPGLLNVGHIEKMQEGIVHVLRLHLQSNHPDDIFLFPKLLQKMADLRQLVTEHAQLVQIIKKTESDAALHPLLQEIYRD
Source text: (§1) Hybrid reporter gene assays for PPARα/γ/δ, LXRα/β, RXRα/β/γ, RARα/β/γ, VDR and PXR Plasmids: The Gal4-fusion receptor plasmids pFA-CMV-hPPARα-LBD^52, pFA-CMV-hPPARγ-LBD^52, pFA-CMV-hPPARδ-LBD^52, pFA-CMV-hLXRα-LBD^32 and pFA-CMV-hLXRβ-LBD^32 have been reported previously. […] Frame and sequence of all fusion receptors were verified by sequencing. pFR-Luc (Stratagene) was used as reporter plasmid and pRL-SV40 (Promega) for normalization of transfection efficiency and cell growth.
(§2) Assay procedure: HEK293T cells were grown in DMEM high glucose, supplemented with 10% FCS, sodium pyruvate (1 mM), penicillin (100 U/mL) and streptomycin (100 μg/mL) at 37° C. and 5% CO2. The day before transfection, HEK293T cells were seeded in 96-well plates (2.5·10^4 cells/well). Before transfection, medium was changed to Opti-MEM without supplements. Transient transfection was carried out using Lipofectamine LTX reagent (Invitrogen) according to the manufacturer's protocol with pFR-Luc (Stratagene), pRL-SV40 (Promega) and pFA-CMV-hRXRα-LBD. 5 h after transfection, medium was changed to Opti-MEM supplemented with penicillin (100 U/mL), streptomycin (100 μg/mL), now additionally containing 0.1% DMSO and the respective test compound or 0.1% DMSO alone as untreated control. […] Luminescence was measured with an Infinite M200 luminometer (Tecan Deutschland GmbH). […]

RXRα = molecular target: T2, RXRα (Homo sapiens, UniProt P19793); assay: Gal4-hybrid reporter gene assay RXRα in HEK293T cells; assay type: cell-based; conditions: 10 μM
T2 construct: hRXRα-P19793, residues 225-462; expressed in transfected cells; host or cells: HEK293T
T2 sequence (P19793 225-462): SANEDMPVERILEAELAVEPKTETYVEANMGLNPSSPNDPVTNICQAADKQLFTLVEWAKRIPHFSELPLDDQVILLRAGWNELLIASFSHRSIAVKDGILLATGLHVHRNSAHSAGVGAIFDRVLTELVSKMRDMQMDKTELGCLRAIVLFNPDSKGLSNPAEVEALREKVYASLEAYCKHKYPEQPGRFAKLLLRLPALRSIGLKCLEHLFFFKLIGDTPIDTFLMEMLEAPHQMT
Source text: as §1, §2

FXR target genes = tested on: FXR target genes
Description: Data was analyzed according to the 2^ΔΔCt method and all results were normalized to the values of the house-keeping gene glycerinaldehyde 3-phosphate dehydrogenase (GAPDH). Gene expression of vehicle treated control cells was defined as 100%.
Two micrograms of total RNA were extracted from HepG2 cells by the Total RNA Mini Kit (R6834-02, Omega Bio-Tek, Inc., Norcross, Ga., USA). […] FXR target gene expression was evaluated by quantitative real time PCR analysis with a StepOnePlus™ System (Life Technologies, Carlsbad, Calif., USA) using PowerSYBRGreen (Life Technologies; 12.5 μL per well). The primers are listed in the supporting information. Each sample was set up in duplicates and repeated in at least three independent experiments. The expression was quantified by the comparative ΔΔCt method and glycerinaldehyde 3-phosphate dehydrogenase (GAPDH) served as reference gene.

CC(C)(C)c1ccc(C(=O)NCc2ccc(NS(C)(=O)=O)cc2Cl)cc1 [compound 57, 4-(tert-Butyl)-N-(2-chloro-4-(methylsulfonamido)benzyl)benzamide]
activity on PPARα (PPARα): inactive | activity on RXRα (RXRα): inactive | BSEP mRNA expression compared to vehicle set as 100% (FXR target genes; HepG2, 0.1 μM, 8 or 16 h): 216±18% | FABP1 mRNA expression compared to vehicle set as 100% (FXR target genes; HepG2, 0.1 μM, 8 or 16 h): 183±34% | FAS mRNA expression compared to vehicle set as 100% (FXR target genes; HepG2, 0.1 μM, 8 or 16 h): 22±8% | FGF19 mRNA expression compared to vehicle set as 100% (FXR target genes; HepG2, 0.1 μM, 8 or 16 h): 309±101% | PDK4 mRNA expression compared to vehicle set as 100% (FXR target genes; HepG2, 0.1 μM, 8 or 16 h): 255±54% | PPARα mRNA expression compared to vehicle set as 100% (FXR target genes; HepG2, 0.1 μM, 8 or 16 h): 170±11% | SHP mRNA expression compared to vehicle set as 100% (FXR target genes; HepG2, 0.1 μM, 8 or 16 h): 242±61% | SREBP1c mRNA expression compared to vehicle set as 100% (FXR target genes; HepG2, 0.1 μM, 8 or 16 h): 49±17% | BSEP mRNA expression compared to vehicle set as 100% (FXR target genes; HepG2, 1 μM, 8 or 16 h): 222±20% | FABP1 mRNA expression compared to vehicle set as 100% (FXR target genes; HepG2, 1 μM, 8 or 16 h): 194±42% | FGF19 mRNA expression compared to vehicle set as 100% (FXR target genes; HepG2, 1 μM, 8 or 16 h): 325±77% | PDK4 mRNA expression compared to vehicle set as 100% (FXR target genes; HepG2, 1 μM, 8 or 16 h): 226±57% | PPARα mRNA expression compared to vehicle set as 100% (FXR target genes; HepG2, 1 μM, 8 or 16 h): 211±10% | SHP mRNA expression compared to vehicle set as 100% (FXR target genes; HepG2, 1 μM, 8 or 16 h): 317±78% | amplitude of induction of SHP, PPARα, FGF19, PDK4 and FABP1 relative to CDCA (1b) (FXR target genes; HepG2, % of CDCA (1b) at 50 μM): 50-80%
